Experimental data reported in patent EP4745135A1 (Gluetacs Therapeutics (Shanghai) Co., Ltd., priority 2023, dated 2025).

Key:
CK1α = molecular target: T1, CK1α (Homo sapiens, UniProt P48729+Q96SW2); assay: Western blot, degradation of substrate protein in hPBMCs; assay type: cell-based
T1 construct: effects of the compounds of the present disclosure on the expression of target proteins in cells; endogenous in cells; host or cells: human PBMCs (Milecell Biotechnologies)

WEE1 = molecular target: T2, WEE1 (Homo sapiens, UniProt P30291+Q96SW2); assay: as above; assay type: cell-based
T2 construct: effects of the compounds of the present disclosure on the expression of target proteins in cells; endogenous in cells; host or cells: human PBMCs (Milecell Biotechnologies)

IKZF1 = molecular target: T3, IKZF1 (Homo sapiens, UniProt Q13422+Q96SW2); assay: as above; assay type: cell-based
T3 construct: effects of the compounds of the present disclosure on the expression of target proteins in cells; endogenous in cells; host or cells: human PBMCs (Milecell Biotechnologies)

IKZF3 = molecular target: T4, IKZF3 (Homo sapiens, UniProt Q96SW2+Q9UKT9); assay: as above; assay type: cell-based
T4 construct: effects of the compounds of the present disclosure on the expression of target proteins in cells; endogenous in cells; host or cells: human PBMCs (Milecell Biotechnologies)

IKZF2 = molecular target: T5, IKZF2 (Homo sapiens, UniProt Q96SW2+Q9UKS7); assay: as above; assay type: cell-based
T5 construct: effects of the compounds of the present disclosure on the expression of target proteins in cells; endogenous in cells; host or cells: human PBMCs (Milecell Biotechnologies)

GSPT1 = assay: as above; assay type: cell-based, Human
[1] = molecular target: T6, human Cereblon WT GST-tagged protein (Homo sapiens, UniProt Q96SW2); assay: CRBN-binding affinity, HTRF (CEREBLON BINDING kit); settings: for inhibition at 0.5 µM: read-out: Inhibition Rate at 0.5 µM (%); for inhibition at 2 µM: read-out: Inhibition Rate at 2 µM (%)
T6 construct: purchased CISBIO 64BDCRBNPEH

[2] = Western blot, 24 hours of compound treatment, compounds tested at 50 nM and 500 nM (concentration for the table not stated)
[3] = 24 hours treatment, compounds at 50 nM and 500 nM (concentration behind the class not stated)

T5 sequence (Q9UKS7 whole entry): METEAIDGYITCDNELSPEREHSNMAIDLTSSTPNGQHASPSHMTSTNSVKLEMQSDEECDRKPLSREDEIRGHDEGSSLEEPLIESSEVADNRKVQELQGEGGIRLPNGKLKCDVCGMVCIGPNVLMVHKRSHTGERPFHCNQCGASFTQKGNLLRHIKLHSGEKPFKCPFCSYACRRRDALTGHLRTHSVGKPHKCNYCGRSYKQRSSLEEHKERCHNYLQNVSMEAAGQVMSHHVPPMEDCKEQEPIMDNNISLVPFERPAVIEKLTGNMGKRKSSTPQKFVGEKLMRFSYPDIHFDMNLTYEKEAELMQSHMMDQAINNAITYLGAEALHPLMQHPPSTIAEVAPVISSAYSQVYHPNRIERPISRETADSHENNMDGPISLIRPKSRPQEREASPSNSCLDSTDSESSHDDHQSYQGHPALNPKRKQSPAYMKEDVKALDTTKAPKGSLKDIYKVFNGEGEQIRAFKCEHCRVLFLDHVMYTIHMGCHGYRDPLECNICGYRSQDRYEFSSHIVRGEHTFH
T5 sequence (Q96SW2 whole entry): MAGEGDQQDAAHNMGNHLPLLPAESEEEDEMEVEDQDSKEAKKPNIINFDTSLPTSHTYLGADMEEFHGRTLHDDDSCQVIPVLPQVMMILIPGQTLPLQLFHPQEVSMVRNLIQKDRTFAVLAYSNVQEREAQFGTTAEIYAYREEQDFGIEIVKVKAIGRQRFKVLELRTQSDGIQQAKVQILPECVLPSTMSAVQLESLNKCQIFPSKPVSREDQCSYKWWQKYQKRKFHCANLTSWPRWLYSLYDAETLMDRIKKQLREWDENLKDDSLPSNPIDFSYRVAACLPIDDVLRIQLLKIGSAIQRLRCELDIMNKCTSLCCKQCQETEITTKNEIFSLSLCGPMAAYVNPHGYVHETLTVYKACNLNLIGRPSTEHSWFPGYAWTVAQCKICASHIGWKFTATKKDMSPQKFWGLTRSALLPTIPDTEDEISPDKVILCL
T5 sequence (Q16531 whole entry partner): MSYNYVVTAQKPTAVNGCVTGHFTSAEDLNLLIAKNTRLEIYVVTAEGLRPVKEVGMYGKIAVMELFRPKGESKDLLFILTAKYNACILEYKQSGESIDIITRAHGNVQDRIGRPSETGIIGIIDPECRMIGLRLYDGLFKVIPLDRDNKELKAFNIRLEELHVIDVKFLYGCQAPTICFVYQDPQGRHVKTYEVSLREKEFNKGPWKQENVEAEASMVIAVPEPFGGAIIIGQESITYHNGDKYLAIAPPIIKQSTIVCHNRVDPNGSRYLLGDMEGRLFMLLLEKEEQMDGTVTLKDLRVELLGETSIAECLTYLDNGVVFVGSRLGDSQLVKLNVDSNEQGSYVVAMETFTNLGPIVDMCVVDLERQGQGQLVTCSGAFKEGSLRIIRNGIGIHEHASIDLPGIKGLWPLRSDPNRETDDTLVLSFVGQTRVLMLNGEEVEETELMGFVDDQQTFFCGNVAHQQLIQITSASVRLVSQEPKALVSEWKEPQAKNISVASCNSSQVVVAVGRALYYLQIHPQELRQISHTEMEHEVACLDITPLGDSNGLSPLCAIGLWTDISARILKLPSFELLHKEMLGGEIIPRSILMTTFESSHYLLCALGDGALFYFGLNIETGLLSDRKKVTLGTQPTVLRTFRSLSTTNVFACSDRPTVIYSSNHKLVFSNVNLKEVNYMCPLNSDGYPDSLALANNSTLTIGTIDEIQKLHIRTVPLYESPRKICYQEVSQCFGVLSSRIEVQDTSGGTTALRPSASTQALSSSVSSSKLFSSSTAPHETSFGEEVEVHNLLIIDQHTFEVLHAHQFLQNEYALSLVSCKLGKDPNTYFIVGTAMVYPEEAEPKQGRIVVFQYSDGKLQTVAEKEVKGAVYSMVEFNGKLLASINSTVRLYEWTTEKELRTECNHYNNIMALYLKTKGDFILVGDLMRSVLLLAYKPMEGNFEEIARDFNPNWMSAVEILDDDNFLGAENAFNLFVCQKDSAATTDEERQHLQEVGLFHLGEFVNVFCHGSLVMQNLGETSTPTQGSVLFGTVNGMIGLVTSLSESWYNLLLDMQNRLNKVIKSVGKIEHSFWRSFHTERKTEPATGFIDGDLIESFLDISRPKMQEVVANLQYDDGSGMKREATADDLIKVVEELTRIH
T6 sequence (Q96SW2 whole entry): as the sequence (Q96SW2 whole entry) above
T4 sequence (Q9UKT9 whole entry): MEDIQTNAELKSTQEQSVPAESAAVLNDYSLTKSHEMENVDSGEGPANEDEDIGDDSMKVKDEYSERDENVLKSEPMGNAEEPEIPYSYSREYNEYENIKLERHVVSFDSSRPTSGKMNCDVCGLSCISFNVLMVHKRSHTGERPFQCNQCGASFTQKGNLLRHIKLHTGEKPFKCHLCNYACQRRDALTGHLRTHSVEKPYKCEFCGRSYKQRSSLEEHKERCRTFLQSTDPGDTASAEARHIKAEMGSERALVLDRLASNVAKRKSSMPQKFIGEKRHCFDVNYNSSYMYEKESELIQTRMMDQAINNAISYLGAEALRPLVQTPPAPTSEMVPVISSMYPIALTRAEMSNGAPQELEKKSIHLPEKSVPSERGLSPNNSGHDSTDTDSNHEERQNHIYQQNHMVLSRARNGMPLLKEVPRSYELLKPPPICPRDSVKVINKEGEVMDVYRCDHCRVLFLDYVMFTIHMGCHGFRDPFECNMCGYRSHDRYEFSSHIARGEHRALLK
T4 sequence (Q96SW2 whole entry): as the sequence (Q96SW2 whole entry) above
T4 sequence (Q16531 whole entry partner): as the sequence (Q16531 whole entry partner) above
T1 sequence (P48729 whole entry): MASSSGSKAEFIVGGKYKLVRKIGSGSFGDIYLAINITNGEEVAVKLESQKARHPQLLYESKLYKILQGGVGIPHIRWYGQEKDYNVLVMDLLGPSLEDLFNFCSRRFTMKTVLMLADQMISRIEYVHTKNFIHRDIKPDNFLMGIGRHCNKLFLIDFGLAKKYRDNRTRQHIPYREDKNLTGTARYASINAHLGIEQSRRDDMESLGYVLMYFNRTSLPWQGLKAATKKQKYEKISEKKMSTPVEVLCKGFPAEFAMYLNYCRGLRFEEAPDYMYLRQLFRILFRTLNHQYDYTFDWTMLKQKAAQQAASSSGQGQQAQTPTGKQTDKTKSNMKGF
T1 sequence (Q96SW2 whole entry): as the sequence (Q96SW2 whole entry) above
T1 sequence (Q16531 whole entry partner): as the sequence (Q16531 whole entry partner) above
T2 sequence (P30291 whole entry): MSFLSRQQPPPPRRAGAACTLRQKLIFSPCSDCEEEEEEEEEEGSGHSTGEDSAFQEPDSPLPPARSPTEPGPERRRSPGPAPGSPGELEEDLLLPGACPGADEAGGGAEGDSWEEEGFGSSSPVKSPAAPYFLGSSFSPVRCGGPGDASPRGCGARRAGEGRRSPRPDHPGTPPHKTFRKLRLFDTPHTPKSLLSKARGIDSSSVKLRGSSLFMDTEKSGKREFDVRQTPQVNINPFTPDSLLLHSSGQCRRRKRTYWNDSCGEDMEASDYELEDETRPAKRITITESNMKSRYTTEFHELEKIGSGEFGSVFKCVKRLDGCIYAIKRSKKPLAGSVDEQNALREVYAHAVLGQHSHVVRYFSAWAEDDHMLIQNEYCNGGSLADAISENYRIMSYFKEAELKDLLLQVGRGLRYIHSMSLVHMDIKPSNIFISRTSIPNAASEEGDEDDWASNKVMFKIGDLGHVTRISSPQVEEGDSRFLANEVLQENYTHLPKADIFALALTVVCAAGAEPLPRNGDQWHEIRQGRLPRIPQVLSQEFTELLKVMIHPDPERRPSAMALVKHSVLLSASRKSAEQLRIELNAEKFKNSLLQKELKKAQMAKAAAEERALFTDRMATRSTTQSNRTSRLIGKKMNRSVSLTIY
T2 sequence (Q96SW2 whole entry): as the sequence (Q96SW2 whole entry) above
T2 sequence (Q16531 whole entry partner): as the sequence (Q16531 whole entry partner) above
T3 sequence (Q13422 whole entry): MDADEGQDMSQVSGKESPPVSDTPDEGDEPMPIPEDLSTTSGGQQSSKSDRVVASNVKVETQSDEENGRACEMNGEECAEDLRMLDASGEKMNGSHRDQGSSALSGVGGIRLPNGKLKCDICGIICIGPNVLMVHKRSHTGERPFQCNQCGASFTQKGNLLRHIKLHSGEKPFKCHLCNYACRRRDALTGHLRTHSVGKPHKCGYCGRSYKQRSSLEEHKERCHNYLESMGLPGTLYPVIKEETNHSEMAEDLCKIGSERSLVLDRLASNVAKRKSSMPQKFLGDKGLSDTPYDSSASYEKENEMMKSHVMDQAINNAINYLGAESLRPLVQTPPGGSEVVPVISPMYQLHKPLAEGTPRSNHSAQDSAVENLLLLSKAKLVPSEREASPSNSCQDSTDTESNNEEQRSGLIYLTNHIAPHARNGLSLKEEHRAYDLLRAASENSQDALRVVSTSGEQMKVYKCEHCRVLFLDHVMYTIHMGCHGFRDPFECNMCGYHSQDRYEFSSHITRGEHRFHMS
T3 sequence (Q96SW2 whole entry): as the sequence (Q96SW2 whole entry) above
T3 sequence (Q16531 whole entry partner): as the sequence (Q16531 whole entry partner) above

SMILES | CK1α substrate protein remaining % (CK1α; [2]) | Wee1 substrate protein remaining % (WEE1; [2]) | IKZF 1 substrate protein remaining % (IKZF1; [2]) | IKZF3 substrate protein remaining % (IKZF3; [2]) | IKZF2 substrate protein remaining % (IKZF2; [2]) | GSPT1 substrate protein remaining % (GSPT1; [2]) | inhibition at 0.5 µM [1] | inhibition at 2 µM [1] | CK1α substrate protein remaining % (CK1α; [3]) | Wee1 substrate protein remaining % (WEE1; [3]) | IKZF 1 substrate protein remaining % (IKZF1; [3]) | IKZF3 substrate protein remaining % (IKZF3; [3]) | IKZF2 substrate protein remaining % (IKZF2; [3]) | GSPT1 substrate protein remaining % (GSPT1; [3])
O=C1CCC(N2Cc3cc(CN4CCN(c5c(Cl)ccnc5Cl)CC4)ccc3C2=S)C(=O)N1 (centres unmarked) [GT-09232, 3-(5-((4-(2,4-dichloropyridin-3-yl)piperazin-1-yl)methyl)-1-thioxoisoindolin-2-yl)piperidine-2,6-dione] | A (0% ≤ substrate protein remaining % ≤ 80%) | A (0% ≤ substrate protein remaining % ≤ 80%) | A (0% ≤ substrate protein remaining % ≤ 80%) | A (0% ≤ substrate protein remaining % ≤ 80%) | A (0% ≤ substrate protein remaining % ≤ 80%) | A (0% ≤ substrate protein remaining % ≤ 80%) | 60 to 80% | 80 to 100% | – | – | – | – | – | –
O=C1CCC(N2Cc3cc(CN4CCN(c5ccncc5)CC4)ccc3C2=S)C(=O)N1 (centres unmarked) [GT-09233, 3-(5-((4-(pyridin-4-yl)piperazin-1-yl)methyl)-1-thioxoisoindolin-2-yl)piperidine-2,6-dione] | A (0% ≤ substrate protein remaining % ≤ 80%) | A (0% ≤ substrate protein remaining % ≤ 80%) | A (0% ≤ substrate protein remaining % ≤ 80%) | A (0% ≤ substrate protein remaining % ≤ 80%) | A (0% ≤ substrate protein remaining % ≤ 80%) | A (0% ≤ substrate protein remaining % ≤ 80%) | 60 to 80% | 80 to 100% | – | – | – | – | – | –
Cc1cc(N2CCN(Cc3ccc4c(c3)CN(C3CCC(=O)NC3=O)C4=S)CC2)ccn1 (centres unmarked) [GT-09234, 3-(5-((4-(2-methylpyridin-4-yl)piperazin-1-yl)methyl)-1-thioxoisoindolin-2-yl)piperidine-2,6-dione] | A (0% ≤ substrate protein remaining % ≤ 80%) | A (0% ≤ substrate protein remaining % ≤ 80%) | A (0% ≤ substrate protein remaining % ≤ 80%) | A (0% ≤ substrate protein remaining % ≤ 80%) | A (0% ≤ substrate protein remaining % ≤ 80%) | A (0% ≤ substrate protein remaining % ≤ 80%) | 60 to 80% | 80 to 100% | – | – | – | – | – | –
O=C1CCC(N2Cc3cc(CN4CCN(c5nccc(F)c5F)CC4)ccc3C2=S)C(=O)N1 (centres unmarked) [GT-09235, 3-(5-((4-(3,4-difluoropyridin-2-yl)piperazin-1-yl)methyl)-1-thioxoisoindolin-2-yl)piperidine-2,6-dione] | A (0% ≤ substrate protein remaining % ≤ 80%) | B (80%< substrate protein remaining %≤ 100%) | B (80%< substrate protein remaining %≤ 100%) | A (0% ≤ substrate protein remaining % ≤ 80%) | A (0% ≤ substrate protein remaining % ≤ 80%) | A (0% ≤ substrate protein remaining % ≤ 80%) | 60 to 80% | 80 to 100% | – | – | – | – | – | –
O=C1CCC(N2Cc3cc(CN4CCN(c5ccncc5Cl)CC4)ccc3C2=S)C(=O)N1 (centres unmarked) [GT-09238, 3-(5-((4-(3-chloropyridin-4-yl)piperazin-1-yl)methyl)-1-thioxoisoindolin-2-yl)piperidine-2,6-dione] | A (0% ≤ substrate protein remaining % ≤ 80%) | B (80%< substrate protein remaining %≤ 100%) | B (80%< substrate protein remaining %≤ 100%) | A (0% ≤ substrate protein remaining % ≤ 80%) | A (0% ≤ substrate protein remaining % ≤ 80%) | A (0% ≤ substrate protein remaining % ≤ 80%) | 60 to 80% | 80 to 100% | – | – | – | – | – | –
O=C1CCC(N2Cc3cc(CN4CCN(c5ccnc(Br)c5F)CC4)ccc3C2=S)C(=O)N1 (centres unmarked) [GT-09241, 3-(5-((4-(2-bromo-3-fluoropyridin-4-yl)piperazin-1-yl)methyl)-1-thioxoisoindolin-2-yl)piperidine-2,6-dione] | – | – | – | – | – | – | 60 to 80% | 80 to 100% | B (80%< substrate protein remaining %≤ 100%) | B (80%< substrate protein remaining %≤ 100%) | B (80%< substrate protein remaining %≤ 100%) | B (80%< substrate protein remaining %≤ 100%) | B (80%< substrate protein remaining %≤ 100%) | A (0% ≤ substrate protein remaining % ≤ 80%)
O=C1CCC(N2Cc3cc(CN4CCN(c5nccc(Cl)c5F)CC4)ccc3C2=S)C(=O)N1 (centres unmarked) [GT-09244, 3-(5-((4-(4-chloro-3-fluoropyridin-2-yl)piperazin-1-yl)methyl)-1-thioxoisoindolin-2-yl)piperidine-2,6-dione] | – | – | – | – | – | – | 60 to 80% | 80 to 100% | B (80%< substrate protein remaining %≤ 100%) | B (80%< substrate protein remaining %≤ 100%) | B (80%< substrate protein remaining %≤ 100%) | B (80%< substrate protein remaining %≤ 100%) | B (80%< substrate protein remaining %≤ 100%) | A (0% ≤ substrate protein remaining % ≤ 80%)
O=C1CCC(N2Cc3cc(CN4CCN(c5ncccn5)CC4)ccc3C2=S)C(=O)N1 (centres unmarked) [GT-09252, 3-(5-((4-(pyrimidin-2-yl)piperazin-1-yl)methyl)-1-thioxoisoindolin-2-yl)piperidine-2,6-dione] | – | – | – | – | – | – | 60 to 80% | 80 to 100% | B (80%< substrate protein remaining %≤ 100%) | B (80%< substrate protein remaining %≤ 100%) | B (80%< substrate protein remaining %≤ 100%) | B (80%< substrate protein remaining %≤ 100%) | A (0% ≤ substrate protein remaining % ≤ 80%) | B (80%< substrate protein remaining %≤ 100%)
O=C1CCC(N2Cc3cc(CN4CCN(c5nsc6cc(F)ccc56)CC4)ccc3C2=S)C(=O)N1 (centres unmarked) [GT-09259, 3-(5-((4-(6-fluorobenzo[d]isothiazol-3-yl)piperazin-1-yl)methyl)-1-thioxoisoindolin-2-yl)piperidine-2,6-dione] | – | – | – | – | – | – | 53 to 60% | 80 to 100% | B (80%< substrate protein remaining %≤ 100%) | B (80%< substrate protein remaining %≤ 100%) | B (80%< substrate protein remaining %≤ 100%) | B (80%< substrate protein remaining %≤ 100%) | B (80%< substrate protein remaining %≤ 100%) | A (0% ≤ substrate protein remaining % ≤ 80%)
O=C1CCC(N2Cc3cc(CN4CCC(n5cnc6cc(F)ccc65)CC4)ccc3C2=S)C(=O)N1 (centres unmarked) [GT-09262, 3-(5-((4-(5-fluoro-1H-benzo[d]imidazol-1-yl)piperidin-1-yl)methyl)-1-thioxoisoindolin-2-yl)piperidine-2,6-dione] | – | – | – | – | – | – | 53 to 60% | 80 to 100% | B (80%< substrate protein remaining %≤ 100%) | B (80%< substrate protein remaining %≤ 100%) | B (80%< substrate protein remaining %≤ 100%) | B (80%< substrate protein remaining %≤ 100%) | B (80%< substrate protein remaining %≤ 100%) | A (0% ≤ substrate protein remaining % ≤ 80%)
